Test results from US10457891B2, “Organic compounds” (Givaudan, S.A., priority 2013, dated 2019).
Where two headings read alike, the source gives them in different places.

Legend:
[1] = system: hepatocytes from male rats (Sprague Dawley); experiment: In vitro metabolism study in rat hepatocytes in suspension, GC-MS; details: for Residual concentration: male, Sprague Dawley, rat, 4 h, 100 μM
Protocol: In order to study in vitro metabolism in rat hepatocytes, Lilial™ and compounds of the present invention may be incubated in the presence of rat hepatocytes in suspension. Reduction in the concentration of Lilial™ and the compounds of the present invention and formation of any of the corresponding benzoic acid derivatives may be analysed by GC-MS.
Cryopreserved hepatocytes from male rats (Sprague Dawley; Lifetechnologies) were defrozen, washed in Cyropreserved Hepatocytes Recovery Medium (CHRM; Lifetechnologies) and suspended in Williams E Medium (WEM; Lifetechnologies). Lilial™, or the compounds of the present invention (final concentration: 100 μM) were added to the cells (1×10^6 viable cells/ml) and suspensions were incubated up to 4 hours at 37° C. on a shaker in duplicate. Metabolism of testosterone was monitored as positive control. Decrease of the test compounds and formation of the corresponding benzoic acid derivative was determined by GC-MS analysis of methyl esters formed after derivatisation with trimethylsilyl diazomethane (Sigma-Aldrich) in methanol. The test compounds react with diazomethane yielding a methyl ketone which was used for the quantification of Lilial™ and the compound of formula (I). Metabolism was stopped with ice cold 1 M HCl, samples were extracted with tert-butyl methyl ether (MTBE) and analysed by GC-MS. Incubations containing testosterone as control were also stopped with ice cold 1 M HCl, centrifuged to separate the cells, filtrated and the decrease of testosterone analysed by LC-MS.

primates = details: cited from earlier work
mice = details: mouse, in vivo; cited from earlier work
[2] = system: reproductive organs of male rats; details: rat, in vivo; cited from earlier work
guinea-pigs = details: guinea pig, in vivo; cited from earlier work
[3] = system: reproductive organs of dogs; details: dog, in vivo; cited from earlier work

Compound: Cc1cc(CC(C)C)ccc1CCC=O
- Residual concentration [1]: 0 µM

Compound: CC(C=O)Cc1ccc(C(C)(C)C)cc1 (centres unmarked) [Lilial™, 3-(4-tert-butylphenyl)-2-methylpropanal]
- Decrease / metabolism of compound in rat hepatocytes [1]: metabolised rapidly
- Residual concentration [1]: 0 µM
- Toxic effects (primates): No effects
- Toxic effects (mice): No effects
- Toxic effects on reproductive organs [2]: toxic effects on the reproductive organs
- Toxic effects (guinea-pigs): No effects
- Toxic effects on reproductive organs [3]: toxic effects on the reproductive organs

Compound: C[C@]12CC[C@H]3[C@@H](CCC4=CC(=O)CC[C@@]43C)[C@@H]1CC[C@@H]2O [testosterone]
- Decrease / metabolism of compound in rat hepatocytes ([1]; rat hepatocytes, up to 4 hours at 37° C.): rapid decrease

Compound: Cc1ccc(CC(C)C)cc1CC(C)C=O (centres unmarked)
- Residual concentration [1]: 0 µM

Compound: Cc1cc(CCCC(C)C)ccc1CCC=O
- Residual concentration [1]: 0 µM

Compound: Cc1ccc(CCCC(C)C)cc1CCC=O
- Residual concentration [1]: 2.4 µM

Compound: Cc1cc(CCC(C)C)ccc1CCC=O
- Residual concentration [1]: 0 µM

Compound: Cc1cc(CC(C)C)cc(C)c1CCC=O
- Residual concentration [1]: 0 µM
